Experimental data as given in US20110065663A1, “ANTI-CANCER COMBINATION THERAPY” (Katholieke Universiteit Leuven, K.U. Leuven R&D, priority 2008, published 2011).
Like-named read-outs stand apart in the source and are kept apart here.

Assays:
M. hyorhinis TP = assay: TP activity in the medium of MCF-7/HYOR cell cultures (HPLC, conversion of nucleoside to free base); assay type: biochemical, Mycoplasma hyorhinis; conditions: for Percent conversion of nucleoside to the free pyrimidine base in MCF-7/HYOR medium: 37° C.
Experimental: (§1) The TP activity of M. hyorhinis and the conversion of dThd, FdUrd, 5′DFUR and TFT to thymine, 5FU, 5FU or TF-thymine respectively were measured by high-pressure liquid chromatography (HPLC) analysis. MCF-7 and MCF-7/HYOR cells were seeded at a density of 20,000 cells/cm^2 in DMEM with 10% FBS. Four days later, the medium was collected and cleared by centrifugation at 1,400 rpm. For some experiments, the medium of MCF-7/HYOR cells was filtered using a 0.1 μm micro filter (Acrodisc syringe filter, PALL Corporation, East Hills, N.Y.) to remove the mycoplasmas from the medium. 600 μl of the medium was incubated with 200 μM of substrate (dThd, 5′DFUR, TFT or FdUrd) at 37° C. in the presence or absence of 10 μM TPi. At different time points (i.e. 0, 15, 30, 60, 120 minutes and 16 hours), 100 μl aliquots were withdrawn, transferred to Eppendorf tubes and heated at 95° C. for 3 min. Next, the samples were rapidly cooled on ice, exposed for 20 min to 200 μl ice-cold methanol and cleared by centrifugation at 15,000 rpm for 15 minutes. As a positive control, an enzyme activity assay with E. coli TP (Sigma) was performed. For this reaction, 0.025 U of TP were incubated with 200 μM of substrate in TP-buffer (10 mM Tris-HCl, pH 7.6, 1 mM EDTA, 2 mM potassium phosphate and 150 mM NaCl) in a total volume of 600 μl. Aliquots of 100 μl were withdrawn from the reaction mixture at several time points and treated as described above. The nucleosides were separated from their nucleobases on a reversed-phase RP-8 column (Merck, Darmstadt, Germany) and quantified by HPLC analysis (Aliance 2690, Waters, Milford, Mass.). The separation was performed by a linear gradient from 100% buffer B (50 mM NaH2PO4 and 5 mM heptane sulfonic acid, pH 3.2), to 20% buffer B and 80% acetonitrile. […] UV-based detection of all nucleosides was performed at 267 nm.

E. coli TP = target: T1, E. coli TP (Escherichia coli, UniProt P07650); assay: Enzyme activity assay with recombinant E. coli TP (positive control); assay type: biochemical; conditions: 0.025 U TP, 200 μM substrate
T1 construct: purchased Sigma
T1 sequence (P07650 whole entry): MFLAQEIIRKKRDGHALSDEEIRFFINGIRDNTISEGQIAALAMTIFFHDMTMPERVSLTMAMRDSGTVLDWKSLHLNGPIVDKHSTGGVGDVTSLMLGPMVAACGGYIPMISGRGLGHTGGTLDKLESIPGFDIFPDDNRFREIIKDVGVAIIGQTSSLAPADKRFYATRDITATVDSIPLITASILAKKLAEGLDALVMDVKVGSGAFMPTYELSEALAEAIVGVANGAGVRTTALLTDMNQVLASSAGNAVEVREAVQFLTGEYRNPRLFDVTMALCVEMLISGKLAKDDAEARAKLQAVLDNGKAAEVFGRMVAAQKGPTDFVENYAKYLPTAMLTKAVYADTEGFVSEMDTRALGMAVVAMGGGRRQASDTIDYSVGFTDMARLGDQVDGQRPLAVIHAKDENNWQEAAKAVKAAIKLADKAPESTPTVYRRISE
Experimental: The TP activity of M. hyorhinis and the conversion of dThd, FdUrd, 5′DFUR and TFT to thymine, 5FU, 5FU or TF-thymine respectively were measured by high-pressure liquid chromatography (HPLC) analysis. MCF-7 and MCF-7/HYOR cells were seeded at a density of 20,000 cells/cm^2 in DMEM with 10% FBS. Four days later, the medium was collected and cleared by centrifugation at 1,400 rpm. For some experiments, the medium of MCF-7/HYOR cells was filtered using a 0.1 μm micro filter (Acrodisc syringe filter, PALL Corporation, East Hills, N.Y.) to remove the mycoplasmas from the medium. 600 μl of the medium was incubated with 200 μM of substrate (dThd, 5′DFUR, TFT or FdUrd) at 37° C. in the presence or absence of 10 μM TPi. At different time points (i.e. 0, 15, 30, 60, 120 minutes and 16 hours), 100 μl aliquots were withdrawn, transferred to Eppendorf tubes and heated at 95° C. for 3 min. Next, the samples were rapidly cooled on ice, exposed for 20 min to 200 μl ice-cold methanol and cleared by centrifugation at 15,000 rpm for 15 minutes. As a positive control, an enzyme activity assay with E. coli TP (Sigma) was performed. For this reaction, 0.025 U of TP were incubated with 200 μM of substrate in TP-buffer (10 mM Tris-HCl, pH 7.6, 1 mM EDTA, 2 mM potassium phosphate and 150 mM NaCl) in a total volume of 600 μl. Aliquots of 100 μl were withdrawn from the reaction mixture at several time points and treated as described above. The nucleosides were separated from their nucleobases on a reversed-phase RP-8 column (Merck, Darmstadt, Germany) and quantified by HPLC analysis (Aliance 2690, Waters, Milford, Mass.). The separation was performed by a linear gradient from 100% buffer B (50 mM NaH2PO4 and 5 mM heptane sulfonic acid, pH 3.2), to 20% buffer B and 80% acetonitrile. Retention times of thymine and thymidine were respectively 5.1 and 10.8 minutes. UV-based detection of all nucleosides was performed at 267 nm.

MCF-7 cells = assay: Tumor cell proliferation assay, uninfected MCF-7 cells; assay type: cell-based, human; conditions: Homo sapiens, uninfected MCF-7
Experimental: MCF-7 and MCF-7/HYOR cells were seeded in 48-well plates at 10,000 cells/cm^2. […] of the test compounds (5FU, 5′DFUR, CIdUrd, BrdUrd, IdUrd and TFT) with or without 10 μM TPi were added. The cells were incubated for another 4 days, trypsinized and counted by a Coulter counter (Analis, Suarlée, Belgium). In some experiments, the antibiotic plasmocin was added one or three days before addition of the test compounds.

MCF-7/HYOR cells [1] = assay: Tumor cell proliferation assay, M. hyorhinis-infected MCF-7 cells; assay type: cell-based, human; conditions: for IC50: Homo sapiens
Experimental: Mycoplasma hyorhinis (ATCC 17981) was obtained from the American Type Culture Collection (ATCC, Manassas, Va.). The freeze-dried bacteria were reconstituted by adding 1 ml of DMEM. […] The co-culture of MCF-7 cells and M. hyorhinis was maintained under the same conditions as the uninfected MCF-7 cells. […] The cells were incubated for another 4 days, trypsinized and counted by a Coulter counter (Analis, Suarlée, Belgium).

[2] = Conversion of nucleosides in the medium of uninfected MCF-7 cells; assay type: biochemical, human; conditions: even after 24 hours of incubation; data not shown
Experimental: as §1, with “At different time points (i.e. 0, 15, 30, 60, 120 minutes and 16 hours), 100 μl aliquots were withdrawn, transferred to Eppendorf tubes and heated at 95° C. for 3 min.” left out

M. hyorhinis = assay: Staining of DNA with Hoechst 33342, growth of M. hyorhinis in MCF-7 cell cultures; assay type: cell-based, Mycoplasma hyorhinis; conditions: 10 μM; 3 days
Experimental: 10,000 cells/cm^2 (MCF-7 and MCF-7/HYOR) were seeded in 8-well chamber slides (Nunc, Roskilde, Denmark). After 24 hours, 10 μM TPi was added and the cells were incubated for an additional 72 hours. Next, the cells were fixed with Carnoy's fixative (1 part glacial acetic acid to 3 parts absolute methanol) for 10 minutes, air-dried and exposed to the DNA-binding dye Hoechst 33342 (Sigma) at a concentration of 0.5 μg/ml for 15 min at room temperature. Next, the cells were washed twice with de-ionised water and covered with mounting medium (‘glycergel’, Dako, Glostrup, Denmark) and a cover slip. Fluorescence was visualised with a Leica TCS SP5 confocal microscope (Leica, Wetzlar, Germany).

MCF-7/HYOR cell cultures = assay: Nucleoside metabolism experiments, distribution of drug-derived radiolabel in MCF-7/HYOR cell cultures; assay type: cell-based, human; conditions: MCF-7/HYOR
Experimental: Next, the cells were trypsinized, transferred to Eppendorf tubes and centrifuged for 10 minutes at 1,400 rpm. The pellet was resuspended in 1 ml absolute ice-cold methanol and kept on ice for 20 minutes. After centrifugation for 20 minutes at 13,000 rpm the pellet was washed twice with methanol, resuspended in methanol and transferred to scintillation vials containing 9 ml of Ready safe liquid scintillation reagent (‘Hisafe 3’, Perkin Elmer, Waltham, Mass.). The radioactivity was measured by a Liquid scintillation analyzer (2300 TR, Packard, Canberra, Australia). […] Next, the cells were incubated in 0.5 ml absolute ice-cold methanol and kept on ice for 20 minutes. After centrifugation for 20 minutes at 13,000 rpm, the supernatant was subjected to HPLC analysis. […] The amount of compound incorporated into nucleic acids was measured as described above.

MCF-7/HYOR cells [3] = assay: Nucleotide incorporation assay, MCF-7/HYOR compared with MCF-7 cells; assay type: cell-based, human; conditions: 1 μCi radiolabeled compound; FIG. 4
Experimental: MCF-7 and MCF-7/HYOR cells were seeded at 10,000 cells/cm. After 48 hours, cells were treated with 1 μCi of ^3H-labeled nucleoside with or without 10 μM TPi. 16 h later, the medium was removed and the cells were washed twice with PBS. Next, the cells were trypsinized, transferred to Eppendorf tubes and centrifuged for 10 minutes at 1,400 rpm. The pellet was resuspended in 1 ml absolute ice-cold methanol and kept on ice for 20 minutes. After centrifugation for 20 minutes at 13,000 rpm the pellet was washed twice with methanol, resuspended in methanol and transferred to scintillation vials containing 9 ml of Ready safe liquid scintillation reagent (‘Hisafe 3’, Perkin Elmer, Waltham, Mass.). The radioactivity was measured by a Liquid scintillation analyzer (2300 TR, Packard, Canberra, Australia).

C[C@H]1O[C@@H](n2cc(F)c(=O)[nH]c2=O)[C@H](O)[C@@H]1O [5′DFUR, 5-fluoro-5′-deoxyuridine]
Percent conversion of nucleoside to the free pyrimidine base in MCF-7/HYOR medium (M. hyorhinis TP; 2 hours, 200 μM substrate): 5%
Percent conversion of nucleoside to the free pyrimidine base in MCF-7/HYOR medium (M. hyorhinis TP; 16 hours, 200 μM substrate): 22%
Percent conversion of nucleoside to the free pyrimidine base, recombinant E. coli TP (E. coli TP; 2 hours): 26%
Percent conversion of nucleoside to the free pyrimidine base, recombinant E. coli TP (E. coli TP; 16 hours): 64%
IC50 (MCF-7 cells; MCF7, 96 h, no TPi, 4 days, read-out: IC50 MCF-7 As such): > 100 µM
IC50 (MCF-7 cells; MCF7, with 10 μM TPi, read-out: IC50 MCF-7 +TPi (10 μM)): > 100 µM
IC50 (MCF-7/HYOR cells [1]; MCF7, read-out: IC50 MCF-7/HYOR +TPi (10 μM)): > 100 µM
IC50 (MCF-7/HYOR cells [1]; MCF7, read-out: IC50 MCF-7/HYOR As such): 3.5 ± 0.53 µM
IC50 (MCF-7/HYOR cells [1]; MCF7, plasmocin 25 μg/ml, 1 day pretreatment, read-out: IC50 MCF-7/HYOR +plasmocin (25 μg/ml) 1 day prior to addition of test compounds): > 100 µM
IC50 (MCF-7/HYOR cells [1]; MCF7, plasmocin 25 μg/ml, 3 days pretreatment, read-out: IC50 MCF-7/HYOR +plasmocin (25 μg/ml) 3 days prior to addition of test compounds): > 100 µM
Ratio (1)/(2) MCF-7/HYOR (MCF-7/HYOR cells [1]; IC50 in the absence of TPi to IC50 in the presence of TPi): <0.035
Conversion in the medium of uninfected MCF-7 cells [2]: no conversion

Cl.N=C1CCCN1Cc1[nH]c(=O)[nH]c(=O)c1Cl [TPi, 5-chloro-6-(1 [2-iminopyrrolidinyl]methyl)uracil hydrochloride]
Inhibition of conversion of dThd, TFT, FdUrd and 5′DFUR to their free bases in MCF-7/HYOR culture medium (M. hyorhinis TP; 10 μM TPi, 200 μM substrate): completely inhibited
Effect on the growth of M. hyorhinis in MCF-7 cell cultures (M. hyorhinis): not inhibitory

Cc1cn([C@H]2C[C@H](O)[C@@H](CO)O2)c(=O)[nH]c1=O [dThd, thymidine]
Percent conversion of nucleoside to the free pyrimidine base in MCF-7/HYOR medium (M. hyorhinis TP; 16 hours, 200 μM substrate): 97%
Thymidine degraded into thymine (M. hyorhinis TP; within 60 minutes, FIG. 3): almost all
Percent conversion of nucleoside to the free pyrimidine base, recombinant E. coli TP (E. coli TP; 2 hours): 82%
Percent conversion of nucleoside to the free pyrimidine base, recombinant E. coli TP (E. coli TP; 16 hours): 93%
% of drug-derived radiolabel, In medium, Base (MCF-7/HYOR cell cultures; 1 μCi, 16 h): 74.6%
% of drug-derived radiolabel, In medium, Nucleoside (MCF-7/HYOR cell cultures; 1 μCi, 16 h): 11.5%
% of drug-derived radiolabel, In the cytosol of the cells, 5′-diphosphate (MCF-7/HYOR cell cultures; 1 μCi, 16 h): 0.3%
% of drug-derived radiolabel, In the cytosol of the cells, 5′-monophosphate (MCF-7/HYOR cell cultures; 1 μCi, 16 h): 0.6%
% of drug-derived radiolabel, In the cytosol of the cells, 5′-triphosphate (MCF-7/HYOR cell cultures; 1 μCi, 16 h): 0.2%
% of drug-derived radiolabel, In the cytosol of the cells, Nucleoside/nucleobase (MCF-7/HYOR cell cultures; 1 μCi, 16 h): 7.5%
% of drug-derived radiolabel, Incorporatio into DNA/RNA (MCF-7/HYOR cell cultures; 1 μCi, 16 h): 5.3%
Share incorporated into the nucleic acids in the presence of TPi (MCF-7/HYOR cell cultures; in the presence of TPi): almost all
Reduction of incorporation into nucleic acids in infected MCF-7/HYOR cells in comparison with uninfected MCF-7 cells (MCF-7/HYOR cells [3]): 85 fold
Conversion in the medium of uninfected MCF-7 cells [2]: no conversion
